In patent US9375497B2, “[F-18]-labeled L-glutamic acid, [F-18]-labeled L-glutamine, derivatives thereof and use thereof and processes for their preparation” (BAYER SCHERING PHARMA AKTIENGESELLSCHAFT, priority 2006, dated 2016):

Legend:
[1] = system: A549 (non-small-cell bronchial carcinoma) cells; experiment: Tumor cell uptake in A549 cells; type: cell-based, human; settings: 250 kBq/well, compared to [^18F]FDG
Procedure: (§1) For the evaluation of the tumor cell uptake of [^18F]glutamic acid, cell uptake experiments were carried out in human A549 (non-small-cell bronchial carcinoma) and HT29 (colonic carcinoma) cells. The tumor cell uptake of the glutamic acid derivatives was compared to
(§2) [^18F]FDG (gold standard for oncological PET investigations).
FIG. 2: Comparison of the time-dependent tumor cell uptake of [^18F]-4-glutamic acid [20-35 μM] (on the left) and [F-18]FDG [2 μM] (on the right) in A549 cells. The cells were incubated with 250 kBq/well. For displacement experiments, L-glutamic acid (1 mM) or glucose (5 mM) was used (mean value±standard deviation, n=3).

[2] = system: HT29 (colonic carcinoma) cells; experiment: Tumor cell uptake in HT29 cells; type: cell-based, human; settings: compared to [^18F]FDG
Procedure: as §1, §2

[3] = system: murine F9 teratocarcinoma model in NMRI nude mice; experiment: Tumor enrichment and tissue distribution, F9 teratocarcinoma model; settings: for Tumor/tissue quotient, Blood / Tumor/tissue quotient, Brain / Tumor/tissue quotient, Fat / Tumor/tissue quotient, Heart / Tumor/tissue quotient, Intestine / Tumor/tissue quotient, Kidney / Tumor/tissue quotient, Liver / Tumor/tissue quotient, Lung / Tumor/tissue quotient, Muscle / Tumor/tissue quotient, Ovary / Tumor/tissue quotient, Skin / Tumor/tissue quotient, Spleen / Tumor/tissue quotient, Stomach / Tumor/tissue quotient, Uterus: single i.v.; for Tissue uptake, Blood / Tissue uptake, Brain / Tissue uptake, Fat / Tissue uptake, Heart / Tissue uptake, Intestine / Tissue uptake, Kidney / Tissue uptake, Liver / Tissue uptake, Lung / Tissue uptake, Muscle / Tissue uptake, Ovary / Tissue uptake, Skin / Tissue uptake, Spleen / Tissue uptake, Stomach / Tissue uptake, Tumor / Tissue uptake, Uterus: single i.v. 370 kBq
Procedure: For the evaluation of the tumor enrichment and the tissue distribution in experimental animals, [^18F]-4-glutamic acid was tested in a murine F9 teratocarcinoma model in NMRI nude mice and a murine B16F1 melanoma model in C57BI6 mice.
For this, 1×10^6 cells (F9) or 5×10^5 cells (B16F1) respectively were suspended in 100 μl of phosphate-buffered physiological saline solution and inoculated subcutaneously into the right, rear flank of the corresponding experimental animal species (NMRI for F9 and 057-BI6 for B16F1) (Berndorff et al. Clin. Cancer Res. 2005, 11, 2005). […] [^18F]-4-Glutamic acid (370 kBq, in 100 μl of physiological saline solution) was administered intravenously to the tail vein. […]

NC(CC([18F])C(=O)O)C(=O)O (stereo not shown) [[^18F]4-glutamic acid, 4-[F-18]fluoroglutamic acid]
tumor cell uptake [1]: surprisingly high uptake
tumor cell uptake [2]: surprisingly high uptake
Tumor/tissue quotient, Blood ([3]; 0.25 h (times as Table 1)): 1.14
Tumor/tissue quotient, Brain ([3]; 0.25 h (times as Table 1)): 5.6
Tumor/tissue quotient, Fat ([3]; 0.25 h (times as Table 1)): 5.85
Tumor/tissue quotient, Heart ([3]; 0.25 h (times as Table 1)): 1.01
Tumor/tissue quotient, Intestine ([3]; 0.25 h (times as Table 1)): 1.26
Tumor/tissue quotient, Kidney ([3]; 0.25 h (times as Table 1)): 0.4
Tumor/tissue quotient, Liver ([3]; 0.25 h (times as Table 1)): 0.86
Tumor/tissue quotient, Lung ([3]; 0.25 h (times as Table 1)): 0.57
Tumor/tissue quotient, Muscle ([3]; 0.25 h (times as Table 1)): 1.67
Tumor/tissue quotient, Ovary ([3]; 0.25 h (times as Table 1)): 2.43
Tumor/tissue quotient, Skin ([3]; 0.25 h (times as Table 1)): 1.25
Tumor/tissue quotient, Spleen ([3]; 0.25 h (times as Table 1)): 1.12
Tumor/tissue quotient, Stomach ([3]; 0.25 h (times as Table 1)): 1.12
Tumor/tissue quotient, Uterus ([3]; 0.25 h (times as Table 1)): 1.18
Tissue uptake, Blood ([3]; 0.25 h): 2.51 % dose/g
Tissue uptake, Brain ([3]; 0.25 h): 0.52 % dose/g
Tissue uptake, Fat ([3]; 0.25 h): 0.85 % dose/g
Tissue uptake, Heart ([3]; 0.25 h): 2.86 % dose/g
Tissue uptake, Intestine ([3]; 0.25 h): 2.28 % dose/g
Tissue uptake, Kidney ([3]; 0.25 h): 7.24 % dose/g
Tissue uptake, Liver ([3]; 0.25 h): 3.37 % dose/g
Tissue uptake, Lung ([3]; 0.25 h): 5.08 % dose/g
Tissue uptake, Muscle ([3]; 0.25 h): 1.72 % dose/g
Tissue uptake, Ovary ([3]; 0.25 h): 1.34 % dose/g
Tissue uptake, Skin ([3]; 0.25 h): 2.28 % dose/g
Tissue uptake, Spleen ([3]; 0.25 h): 2.56 % dose/g
Tissue uptake, Stomach ([3]; 0.25 h): 2.56 % dose/g
Tissue uptake, Tumor ([3]; 0.25 h): 2.90 % dose/g
Tissue uptake, Uterus ([3]; 0.25 h): 2.54 % dose/g
Tumor/tissue quotient, Blood ([3]; 1.0 h (times as Table 1)): 3.46
Tumor/tissue quotient, Brain ([3]; 1.0 h (times as Table 1)): 4.2
Tumor/tissue quotient, Fat ([3]; 1.0 h (times as Table 1)): 7.37
Tumor/tissue quotient, Heart ([3]; 1.0 h (times as Table 1)): 2.73
Tumor/tissue quotient, Intestine ([3]; 1.0 h (times as Table 1)): 0.97
Tumor/tissue quotient, Kidney ([3]; 1.0 h (times as Table 1)): 1.38
Tumor/tissue quotient, Liver ([3]; 1.0 h (times as Table 1)): 3.48
Tumor/tissue quotient, Lung ([3]; 1.0 h (times as Table 1)): 1.34
Tumor/tissue quotient, Muscle ([3]; 1.0 h (times as Table 1)): 2.51
Tumor/tissue quotient, Ovary ([3]; 1.0 h (times as Table 1)): 5.05
Tumor/tissue quotient, Skin ([3]; 1.0 h (times as Table 1)): 3.4
Tumor/tissue quotient, Spleen ([3]; 1.0 h (times as Table 1)): 3.22
Tumor/tissue quotient, Stomach ([3]; 1.0 h (times as Table 1)): 2.45
Tumor/tissue quotient, Uterus ([3]; 1.0 h (times as Table 1)): 2.59
Tissue uptake, Blood ([3]; 1.0 h): 0.51 % dose/g
Tissue uptake, Brain ([3]; 1.0 h): 0.43 % dose/g
Tissue uptake, Fat ([3]; 1.0 h): 0.26 % dose/g
Tissue uptake, Heart ([3]; 1.0 h): 0.64 % dose/g
Tissue uptake, Intestine ([3]; 1.0 h): 1.83 % dose/g
Tissue uptake, Kidney ([3]; 1.0 h): 1.30 % dose/g
Tissue uptake, Liver ([3]; 1.0 h): 0.50 % dose/g
Tissue uptake, Lung ([3]; 1.0 h): 1.32 % dose/g
Tissue uptake, Muscle ([3]; 1.0 h): 0.70 % dose/g
Tissue uptake, Ovary ([3]; 1.0 h): 0.41 % dose/g
Tissue uptake, Skin ([3]; 1.0 h): 0.53 % dose/g
Tissue uptake, Spleen ([3]; 1.0 h): 0.54 % dose/g
Tissue uptake, Stomach ([3]; 1.0 h): 1.26 % dose/g
Tissue uptake, Tumor ([3]; 1.0 h): 1.75 % dose/g
Tissue uptake, Uterus ([3]; 1.0 h): 0.72 % dose/g
Tumor/tissue quotient, Blood ([3]; 2.0 h (times as Table 1)): 9.06
Tumor/tissue quotient, Brain ([3]; 2.0 h (times as Table 1)): 7.06
Tumor/tissue quotient, Fat ([3]; 2.0 h (times as Table 1)): 23.67
Tumor/tissue quotient, Heart ([3]; 2.0 h (times as Table 1)): 9.22
Tumor/tissue quotient, Intestine ([3]; 2.0 h (times as Table 1)): 1.54
Tumor/tissue quotient, Kidney ([3]; 2.0 h (times as Table 1)): 5.22
Tumor/tissue quotient, Liver ([3]; 2.0 h (times as Table 1)): 9.23
Tumor/tissue quotient, Lung ([3]; 2.0 h (times as Table 1)): 4.09
Tumor/tissue quotient, Muscle ([3]; 2.0 h (times as Table 1)): 9.5
Tumor/tissue quotient, Ovary ([3]; 2.0 h (times as Table 1)): 17.74
Tumor/tissue quotient, Skin ([3]; 2.0 h (times as Table 1)): 9.4
Tumor/tissue quotient, Spleen ([3]; 2.0 h (times as Table 1)): 18
Tumor/tissue quotient, Stomach ([3]; 2.0 h (times as Table 1)): 6.85
Tumor/tissue quotient, Uterus ([3]; 2.0 h (times as Table 1)): 6.96
Tissue uptake, Blood ([3]; 2.0 h): 0.21 % dose/g
Tissue uptake, Brain ([3]; 2.0 h): 0.27 % dose/g
Tissue uptake, Fat ([3]; 2.0 h): 0.09 % dose/g
Tissue uptake, Heart ([3]; 2.0 h): 0.21 % dose/g
Tissue uptake, Intestine ([3]; 2.0 h): 1.21 % dose/g
Tissue uptake, Kidney ([3]; 2.0 h): 0.37 % dose/g
Tissue uptake, Liver ([3]; 2.0 h): 0.20 % dose/g
Tissue uptake, Lung ([3]; 2.0 h): 0.48 % dose/g
Tissue uptake, Muscle ([3]; 2.0 h): 0.42 % dose/g
Tissue uptake, Ovary ([3]; 2.0 h): 0.12 % dose/g
Tissue uptake, Skin ([3]; 2.0 h): 0.21 % dose/g
Tissue uptake, Spleen ([3]; 2.0 h): 0.16 % dose/g
Tissue uptake, Stomach ([3]; 2.0 h): 0.33 % dose/g
Tissue uptake, Tumor ([3]; 2.0 h): 1.87 % dose/g
Tissue uptake, Uterus ([3]; 2.0 h): 0.32 % dose/g
tumor enrichment ([3]; F9 teratocarcinoma, 1 h after intravenous administration): 1.75 % ID/g
maximal tumor enrichment ([3]; F9 teratocarcinoma, after intravenous injection (15 min)): 2.90 % ID/g
